Assay results published in patent US20260041744A1, “Methods for Treating Pompe Disease” (Amicus Therapeutics, Inc., priority 2022, published 2026).
“Also recorded” adds a separate entry of the source.

Experiments:
[1] = Cipaglucosidase alfa pharmacokinetics in ERT-experienced adult patients with LOPD; type: in vivo, human
[2] = molecular target: ATB200 (Homo sapiens, UniProt P10253); assay: Thermostability assay using SYPRO Orange
[3] = system: 4MU-a-Glucoside hydrolysis (GAA activity); assay: GAA enzyme activity by 4MU-a-Glucoside hydrolysis after PAP treatment; type: biochemical, human; conditions: PAP 18 hours
Procedure: Removal of phosphoesters mono- and bis-M6P was completed by the enzyme purple acid phosphatase (PAP). PAP hydrolyzes phosphate esters and anhydrides. […] Cipaglucosidase alfa was treated with PAP for 18 hours, and alglucosidase alfa in the same reaction conditions but without PAP addition was used as a mock-treated control. PAP treatment results in complete removal of the bis-M6P peak and nearly all of the mono-M6P peak from the cipaglucosidase alfa LC-FLD chromatogram. Additional peaks are clearly observed in the neutral high mannose glycan region resulting from the removal of phosphates from mono- and bis-phosphorylated high mannose glycans.

[4] = system: animals; conditions: in vivo
Source text: It is not known whether miglustat is secreted in breast milk. A risk to newborns/breastfed infants cannot be ruled out. The developmental and health benefits of breastfeeding should be considered, as well as the clinical need for the mother to receive co-administration therapy with cipaglucosidase alfa and miglustat, and any adverse reactions experienced by the breastfed child potentially related to the co-administration of cipaglucosidase alfa and miglustat or the underlying maternal condition. In some embodiments, breastfeeding is not allowed while taking cipaglucosidase alfa and miglustat. There are no clinical data on the effects of co-administration therapy of cipaglucosidase alfa and miglustat on fertility.

[5] = system: adult subjects with LOPD; assay: Study ATB200-07 (OLE of PROPEL): 6MWD and % predicted 6MWD; type: in vivo, human; conditions: Study ATB200-03/07, excluding the outlier
Source text: (§1) The study doses and schedule are maintained from Study ATB200-03.
(§2) Efficacy data are presented in this summary as change from the baseline of Study ATB200-03 (OLE-ES Population).

[6] = system: Pompe patient fibroblasts; assay: Cellular uptake into Pompe patient fibroblasts (20 nM rhGAA, 18-hr); type: cell-based, human
Procedure: The relative cellular uptake into Pompe patient fibroblasts of dephosphorylated cipaglucosidase alfa compared to mock-treated cipaglucosidase alfa and mock-treated alglucosidase alfa was assessed. Comparisons at a concentration of 20 nM of rhGAA was used to mimic the interstitial concentration of cipaglucosidase alfa that crosses into tissues, as shown in FIG. 77A. After an 18-hr incubation for enzyme uptake, cells were washed for 2 hours, harvested, lysed, and then processed for GAA activity and western blot analysis. Internalized GAA measured by 4MU-a-Glucoside hydrolysis and was graphed relative to total cellular protein and the results appear in FIG. 77B.
However, cell uptake of PAP-treated cipaglucosidase alfa is abolished.

[7] = system: Gaa KO mice; assay: Muscle fiber size (minimum Feret's diameter) in quadriceps, 12 biweekly injections; type: in vivo, mouse; conditions: 20 mg/kg, 12 biweekly bolus injections
Procedure: FIG. 78 is a graph showing the effect of long-term cipaglucosidase alfa administration (20 mg/kg, 12 biweekly bolus injections) versus alglucosidase alfa on muscle fiber size by mean minimum fiber diameter (FD) in Gaa KO mouse quadriceps.
Gaa mice, like patients with Pompe disease, show a decrease in muscle fiber size as a consequence of muscle atrophy.

[8] = system: adults with Pompe disease; assay: Study ATB200-02: sitting % predicted FVC
[9] = molecular target: T1, CIMPR (Homo sapiens, UniProt P11717); assay: CIMPR plate binding assay
Procedure: In addition to having a greater percentage of rhGAA that can bind to the CIMPR, it is important to understand the quality of that interaction. LUMIZYME® and ATB200 receptor binding was determined using a CIMPR plate binding assay. Briefly, CIMPR-coated plates were used to capture GAA. Varying concentrations of rhGAA were applied to the immobilized receptor and unbound rhGAA was washed off. The amount of remaining rhGAA was determined by GAA activity.
N-glycan analysis via MALDI-TOF mass spectrometry confirmed that on average each ATB200 molecule contains at least one natural bis-M6P N-glycan structure.

[10] = molecular target: T1, CIMPR; assay: CIMPR Overlay Assay (far-western blot); type: binding
Procedure: The CIMPR Overlay Assay is a variation on a far-western blot where proteins are separated on an SDS-PAGE, transferred to a nitrocellulose membrane, and incubated with purified CIMPR in the place of a primary antibody as in a conventional western blot. Binding of CIMPR to M6P-containing glycans on rhGAA proteins is then visualized by an anti-CIMPR antibody.

[11] = system: adults with Pompe disease; assay: Study ATB200-02 (20 mg/kg cipaglucosidase alfa IV + 260 mg miglustat): 6MWT (6MWD, % predicted 6MWD); type: in vivo, human;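 further: Open-label Phase I/II trial, ambulatory cohorts only, values are changes from baseline or counts relative to the baseline walk test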
[12] = system: normal and Pompe fibroblast cell lines; assay: Cellular uptake of rhGAA into fibroblasts (16-hr incubation, internalized GAA by 4MU-α-Glucoside hydrolysis); type: cell-based, human
Procedure: The relative cellular uptake of ATB200 and LUMIZYME® rhGAA were compared using normal and Pompe fibroblast cell lines. Comparisons involved 5-100 nM of ATB200 according to the disclosure with 10-500 nM conventional rhGAA product LUMIZYME®. After 16-hr incubation, external rhGAA was inactivated with TRIS base and cells were washed 3-times with PBS prior to harvest. Internalized GAA measured by 4MU-α-Glucoside hydrolysis and was graphed relative to total cellular protein and the results appear in FIGS. 11A-11C.
ATB200 was also shown to be efficiently internalized into cells. […] ATB200 saturates cellular receptors at about 20 nM, while about 250 nM of LUMIZYME® is needed to saturate cellular receptors.

[13] = human, in vivo
Source text: Blood sampling for plasma GAA protein and miglustat concentrations were taken for cohort 1 (ERT-experienced) and cohort 3 (ERT-naïve) only. To prevent any undue burden on patients, blood sampling for PK was not performed for non-ambulatory patients (cohort 2) and, due to similarity to cohort 1, those in cohort 4.

[14] = system: Gaa KO mice; assay: Single fiber analysis (LAMP1/LC3 co-immunofluorescence, white gastrocnemius); type: in vivo, mouse; conditions: single fibers
Source text: FIG. 17 depicts co-immunofluorescent staining of LAMP1 (green) (see for example, “B”) and LC3 (red) (see, for example, “A”) in single fibers isolated from the white gastrocnemius of Gaa KO mice treated with a vehicle, alglucosidase alfa, or ATB200. “C” depicts clearance of autophagic debris and absence of enlarged lysosome. A minimum of 30 fibers were examined from each animal.
As a result, a significant portion of muscle fibers analyzed (36-60%) from ATB200-treated mice appeared normal or near-normal.

[15] = system: adult subjects with LOPD; assay: Study ATB200-07 (OLE): sitting % predicted FVC; type: in vivo, human; conditions: Study ATB200-03/07, excluding the outlier
Source text: as §1, §2

[16] = 20 mg/kg in combination with Miglustat 260 mg
[17] = ERT-experienced, Study ATB200-02
[18] = ERT-naïve, Study ATB200-02, Cohort 3
[19] = ERT-experienced, Study ATB200-02, Cohort 1 and 4 combined

T1 sequence (P11717 41-2491, species assumed): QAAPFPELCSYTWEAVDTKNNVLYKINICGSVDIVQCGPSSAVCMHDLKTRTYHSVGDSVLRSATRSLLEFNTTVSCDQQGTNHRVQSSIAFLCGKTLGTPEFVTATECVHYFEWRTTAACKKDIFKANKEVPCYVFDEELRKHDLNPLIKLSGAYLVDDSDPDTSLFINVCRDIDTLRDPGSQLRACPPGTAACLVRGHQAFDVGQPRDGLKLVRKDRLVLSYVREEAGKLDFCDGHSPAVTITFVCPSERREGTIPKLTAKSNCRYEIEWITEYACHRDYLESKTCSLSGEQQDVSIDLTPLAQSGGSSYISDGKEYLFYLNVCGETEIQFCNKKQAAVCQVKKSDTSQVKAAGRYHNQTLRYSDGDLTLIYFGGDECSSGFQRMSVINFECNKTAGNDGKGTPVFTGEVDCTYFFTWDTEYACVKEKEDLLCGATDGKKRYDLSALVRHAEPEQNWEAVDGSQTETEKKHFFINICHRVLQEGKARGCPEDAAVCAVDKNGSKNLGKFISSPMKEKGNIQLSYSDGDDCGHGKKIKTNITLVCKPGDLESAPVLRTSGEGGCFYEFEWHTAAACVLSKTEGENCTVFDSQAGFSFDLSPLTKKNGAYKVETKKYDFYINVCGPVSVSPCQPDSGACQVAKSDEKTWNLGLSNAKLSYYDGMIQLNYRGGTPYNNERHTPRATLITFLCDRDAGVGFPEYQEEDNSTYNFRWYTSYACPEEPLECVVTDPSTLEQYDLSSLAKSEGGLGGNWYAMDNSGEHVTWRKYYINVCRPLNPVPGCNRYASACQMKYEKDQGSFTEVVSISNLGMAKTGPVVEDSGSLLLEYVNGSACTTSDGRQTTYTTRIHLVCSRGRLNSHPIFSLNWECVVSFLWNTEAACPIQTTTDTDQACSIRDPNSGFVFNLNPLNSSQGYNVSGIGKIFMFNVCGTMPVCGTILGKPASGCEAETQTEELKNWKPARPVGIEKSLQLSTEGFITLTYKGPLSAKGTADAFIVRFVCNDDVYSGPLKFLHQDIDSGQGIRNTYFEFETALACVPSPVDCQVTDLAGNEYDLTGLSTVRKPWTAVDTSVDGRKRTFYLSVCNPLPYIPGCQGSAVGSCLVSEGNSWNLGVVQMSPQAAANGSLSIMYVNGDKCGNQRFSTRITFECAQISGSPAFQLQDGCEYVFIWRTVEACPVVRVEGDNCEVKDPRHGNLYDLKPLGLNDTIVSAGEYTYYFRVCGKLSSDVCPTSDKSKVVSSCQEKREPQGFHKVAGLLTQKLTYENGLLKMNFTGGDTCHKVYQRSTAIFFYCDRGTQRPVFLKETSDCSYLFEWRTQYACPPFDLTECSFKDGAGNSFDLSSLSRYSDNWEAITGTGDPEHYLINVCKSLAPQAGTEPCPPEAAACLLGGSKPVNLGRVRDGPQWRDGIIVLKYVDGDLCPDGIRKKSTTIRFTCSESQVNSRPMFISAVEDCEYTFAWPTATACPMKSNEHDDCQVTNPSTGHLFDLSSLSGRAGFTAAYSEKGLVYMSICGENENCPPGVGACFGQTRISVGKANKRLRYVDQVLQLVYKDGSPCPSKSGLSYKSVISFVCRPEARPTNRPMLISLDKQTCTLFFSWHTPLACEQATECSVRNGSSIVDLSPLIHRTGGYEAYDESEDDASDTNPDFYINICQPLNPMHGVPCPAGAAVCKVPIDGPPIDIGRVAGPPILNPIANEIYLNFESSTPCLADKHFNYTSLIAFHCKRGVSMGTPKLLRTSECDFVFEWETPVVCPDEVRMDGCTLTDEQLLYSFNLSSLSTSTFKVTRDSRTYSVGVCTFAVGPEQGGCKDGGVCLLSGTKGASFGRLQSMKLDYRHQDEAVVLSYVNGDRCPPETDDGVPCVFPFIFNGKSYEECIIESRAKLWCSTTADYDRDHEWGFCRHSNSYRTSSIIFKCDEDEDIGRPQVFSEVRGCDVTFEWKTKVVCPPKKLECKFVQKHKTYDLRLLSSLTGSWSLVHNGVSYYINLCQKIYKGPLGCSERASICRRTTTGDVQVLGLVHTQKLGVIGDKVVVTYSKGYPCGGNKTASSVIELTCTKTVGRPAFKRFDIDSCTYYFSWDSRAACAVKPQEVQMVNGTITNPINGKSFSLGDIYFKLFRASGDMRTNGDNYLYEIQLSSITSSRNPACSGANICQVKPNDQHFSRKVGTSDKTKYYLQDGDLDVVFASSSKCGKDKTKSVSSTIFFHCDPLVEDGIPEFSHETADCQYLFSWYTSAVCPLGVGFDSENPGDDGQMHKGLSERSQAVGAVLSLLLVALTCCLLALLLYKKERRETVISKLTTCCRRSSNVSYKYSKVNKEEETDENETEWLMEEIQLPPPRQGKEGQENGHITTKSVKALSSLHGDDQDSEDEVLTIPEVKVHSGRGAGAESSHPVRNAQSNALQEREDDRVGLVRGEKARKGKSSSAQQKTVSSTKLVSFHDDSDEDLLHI

Kd ([9]; M6P receptor plate binding assays): 2 to 4 nM
Substance: ATB200: recombinant human acid α-glucosidase with a high content of N-glycans bearing mono-M6P and bis-M6P, produced from GA-ATB200 CHO cell line
AUC0-inf, mean [1, 16]: 1812 µg·h/mL
Cmax, mean [1, 16]: 345 µg/mL
AUC0-inf, mean ([1]; 20 mg/kg without Miglustat): 1410 µg·h/mL
Cmax, mean ([1]; 20 mg/kg without Miglustat): 325 µg/mL
Tm ([2]; pH 5.2): 67.3 °C
Tm ([2]; pH 7.4): 56.2 °C
Tm ([2]; pH 7.4 + 10 μM miglustat): 61.6 °C
Tm ([2]; pH 7.4 + 30 μM miglustat): 62.9 °C
Tm ([2]; pH 7.4 + 100 μM miglustat): 66.0 °C
enzyme activity after PAP treatment [3]: retaining the enzyme activity
excretion in milk [4]: excretion of cipaglucosidase alfa in milk
fertility, preclinical data [4]: did not reveal any significant adverse reactions
6MWD Baseline, Mean ([5]; ERT-experienced): 342.4
6MWD CFBL M12 (W 52) Mean ([5]; ERT-experienced): 16.3
6MWD CFBL M24 (W 104) Mean ([5]; ERT-experienced): 14.2
6MWD Baseline, Mean ([5]; ERT-naïve): 393.6
6MWD CFBL M12 (W 52) Mean ([5]; ERT-naïve): 33.4
6MWD CFBL M24 (W 104) Mean ([5]; ERT-naïve): 38.8
cellular uptake into Pompe fibroblasts [6]: better cellular uptake compared to alfaglucosidase alfa
muscle fiber size vs alglucosidase alfa [7]: significantly improved muscle fiber size
% Predicted FVC Baseline Mean [8, 17]: 57.4 % predicted
% Predicted FVC CFBL M12 (W 52) Mean [8, 17]: −1.2 % predicted
% Predicted FVC CFBL M24 (W 104) Mean [8, 17]: 1.0 % predicted
% Predicted FVC Baseline Mean [8, 18]: 57.2 % predicted
% Predicted FVC CFBL M12 (W 52) Mean [8, 18]: 3.2 % predicted
% Predicted FVC CFBL M24 (W 104) Mean [8, 18]: 4.7 % predicted
CIMPR binding compared with LUMIZYME ([9]; CIMPR-coated plates): bound to CIMPR significantly better than LUMIZYME®
CIMPR binding in overlay assay [10]: binds with high affinity to CIMPR as shown by an intense band
6MWD Baseline, Mean [11, 19]: 393.5
6MWD CFBL M12 (W 52) Mean [11, 19]: 33.5
6MWD CFBL M24 (W 104) Mean [11, 19]: 25.2
6MWD Baseline, Mean [11, 18]: 396.0
6MWD CFBL M12 (W 52) Mean [11, 18]: 57.0
6MWD CFBL M24 (W 104) Mean [11, 18]: 54.4
uptake efficiency constant (Kuptake) ([12]; extrapolated from uptake curves): 2-3 nm
internalization into fibroblasts ([12]; normal and Pompe fibroblast cells): internalized to a greater degree than the conventional rhGAA product LUMIZYME®
rhGAA concentration that saturates cellular receptors ([12]; normal and Pompe fibroblasts): about 20 nM
median time of peak signature peptide T09 concentrations (tmax) [13]: approximately 4 hours
Fibers with Normal or Near-normal Appearance [14]: 36-60%
Lysosome Enlargement [14]: dramatically decreased lysosome size; also recorded: Dramatic size
% Predicted FVC Baseline Mean ([15]; ERT-experienced): 67.7 % predicted
% Predicted FVC CFBL M12 (W 52) Mean ([15]; ERT-experienced): 0.1 % predicted
% Predicted FVC CFBL M24 (W 104) Mean ([15]; ERT-experienced): −0.6 % predicted
% Predicted FVC Baseline Mean ([15]; ERT-naïve): 80.2 % predicted
% Predicted FVC CFBL M12 (W 52) Mean ([15]; ERT-naïve): −4.7 % predicted
% Predicted FVC CFBL M24 (W 104) Mean ([15]; ERT-naïve): −4.8 % predicted
